Measurements reported in the METLIN SMRT retention time set (Domingo-Almenara et al. 2019).

Assay: gradient 5% acetonitrile 3 min, to 50% in 2 min, to 85% in 15 min, held 3 min, 100 µL/min
Settings: column: Zorbax Extend-C18 2.1 x 50 mm; eluents: water / acetonitrile, 0.1% formic acid
In short: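 Using water and acetonitrile that each contained 0.1% formic acid, mixtures of ~100 pure standards were separated at 100 μL/min on a Zorbax Extend-C18 column (2.1 × 50 mm, 1.8 μm). The HPLC fed a quadrupole time-of-flight mass spectrometer working in positive and negative ionization mode, with dead and dwell volumes of 40 μL and 900 μL. Data were acquired over 3 months. Retention time was read from computationally picked adduct peaks after manual inspection of each.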

| SMILES | RP-LC retention time |
| --- | --- |
| Cc1ccc(S(=O)(=O)N2CCC(C(=O)NCc3csc(-c4ccccc4)n3)CC2)c(C)c1 | 996 s |
| O=C(NCc1cccc(Cl)c1)C1CCCN(c2nccnc2Sc2ccccc2)C1 (centres undefined) | 1080 s |
| CC(C)n1c(=O)sc2cc(S(=O)(=O)N3CCC(C(=O)N4CCc5ccccc5C4)CC3)ccc21 | 1000 s |
| COCCN1C(=O)[C@H]2CN(Cc3cccc(C(F)(F)F)c3)C[C@H]2C1=O | 694 s |
| O=C(NC1CCCc2c1[nH]c1c(Cl)cccc21)c1ccncc1 (centres undefined) | 850 s |
| CCc1noc(-c2ccnc(-n3cnc(C(=O)NCc4ccccc4)c3)c2)n1 | 866 s |
| COCCn1nc(C(=O)N(C)CCCc2c(C)nn(C)c2C)c2c1CCNC2 | 572 s |
| CCc1ccc(N2CC(c3noc(-c4cccc(Cl)c4)n3)CC2=O)cc1 (centres undefined) | 1200 s |
| COc1ccc(-c2nnc(-c3ccc(C)c(S(=O)(=O)N4CCCCC4)c3)o2)cc1 | 1120 s |
| O=C(c1ccco1)N1CCN(C(=O)C2CCCN(c3ncnc4c3nc3n4CCCCC3)C2)CC1 (centres undefined) | 657 s |
| O=C(NCCc1ccsc1)C(=O)NCC(F)(F)F | 756 s |
| CC(=O)Nc1nsc(N2CCC(C(=O)N3CCN(c4ccccc4)CC3)CC2)n1 | 659 s |
| COc1ccc(-c2noc(C3CC(=O)N(c4ccc(C(C)C)cc4)C3)n2)cc1OC (centres undefined) | 870 s |
| CC(C)N(CC[C@H](c1ccccc1)c1cc(CO)ccc1O)C(C)C | 678 s |
| COc1cccc(-c2noc(CN3C(=O)C(C)Oc4ccccc43)n2)c1 (centres undefined) | 1060 s |
| Cc1ccc(CNC(=O)C(C)n2nc(C)c3nn(-c4ccccc4)c(-n4cccc4)c3c2=O)o1 (centres undefined) | 987 s |
| Cc1noc(C2CN(C(=O)c3n[nH]c4ccccc34)CC23CCOCC3)n1 (centres undefined) | 665 s |
| O=C(NCc1ccc(F)c(Cl)c1)c1ccc2ncnc(N3CCCC3)c2c1 | 670 s |
| CN(C)S(=O)(=O)c1ccc(-c2nnc(C(=O)NCCCN3CCCC3=O)o2)cc1 | 655 s |
| CCOC(=O)CN1N=C(C(=O)N2CCC(C)CC2)S(=O)(=O)c2ccccc21 | 888 s |
| CCOc1ccc(NC(=O)C2CCCN(c3nnc4ccc(Cl)cn34)C2)cc1 (centres undefined) | 683 s |
| Cc1cc(OC(C)C(=O)N(Cc2ccco2)C2CCS(=O)(=O)C2)cc(C)c1Cl (centres undefined) | 1010 s |

| SMILES | RP-LC retention time |
| --- | --- |
| COc1ccccc1C(=O)NC1(C(F)(F)F)C(=O)N(C2CCCCC2)C(C)=C1C(C)=O (centres undefined) | 1080 s |
| CN(C)c1cccc(C(=O)Nc2cc(-c3cccnc3)no2)c1 | 728 s |
| CC1CCN(c2cc(-n3cnc(C(=O)N4CCCCC4)c3)ncn2)CC1 | 920 s |
| CCCCNC(=O)C(=O)NCC(c1ccc2c(c1)OCO2)N1CCOCC1 (centres undefined) | 628 s |
| Cc1ccccc1NC(=O)CN1C(=O)CCc2cc(S(=O)(=O)N3CCCCC3C)ccc21 (centres undefined) | 896 s |
| NC(=O)C1CCN(C(c2cccc(Cl)c2)c2sc3nc(-c4ccco4)nn3c2O)CC1 (centres undefined) | 717 s |
| CC(C)CCNC(=O)CCC(=O)N1CCCn2nc(-c3cn(C)c4ccccc34)cc21 | 778 s |
| CC(NC(=O)c1ccco1)c1nc2ccccc2n1CC(=O)N(c1ccccc1)C(C)C (centres undefined) | 725 s |
| COc1cc2c(cc1OC)C(C(=O)NCCCN1CCOCC1)C1c3ccccc3CCN1C2=O (centres undefined) | 592 s |
| CN(C)c1cccc(-c2nc(C3CC(=O)N(c4ccc(F)cc4)C3)no2)c1 (centres undefined) | 1030 s |
| CCC(Sc1nnc2n1CCN2c1ccc(OC)cc1)C(=O)OC (centres undefined) | 735 s |
| COc1ccc(C2=Nc3ccccc3N(CC(=O)Nc3ccc4c(c3)OCO4)C(=O)C2)cc1 | 895 s |
| Cn1c(=O)c2ccn(CC(=O)N3CCC(C(N)=O)(N4CCCCC4)CC3)c2n(C)c1=O | 728 s |
| CCc1nnc(-c2ccc(NC(=O)c3cc4ccccc4o3)cc2)o1 | 826 s |
| COc1ccc(CNC(=O)Nc2cc3c(cc2Oc2ccccc2)n(C)c(=O)n3C)cc1 | 840 s |
| COc1cc2c(cc1OC)C(C(=O)N1CCN(c3ccccn3)CC1)C1c3ccccc3CCN1C2=O (centres undefined) | 590 s |
| COc1cc(OC)c(C(=O)CCCCN2CCC3(CC2)NC(=O)NC3=O)cc1NS(=O)(=O)c1ccc(C(F)(F)F)cc1 | 750 s |
| CCOC(=O)CC(=O)CSc1nnc(CNC(=O)c2ccc(F)cc2)o1 | 678 s |
| Cc1ccc(CNC(=O)c2ccc(-c3cncnc3)nc2)o1 | 678 s |
| N#Cc1ccc(C(=O)NC(c2ccccc2)c2nnc(N3CCCC3)o2)cc1 (centres undefined) | 765 s |
| Cc1ccc(NC(=O)NCc2ccnc(N3CCSCC3)c2)c(C)c1 | 631 s |
| CCOc1ccccc1NC(=O)CN1C(=O)C(O)(c2cccc(C)c2)c2ccccc21 (centres undefined) | 640 s |

| SMILES | RP-LC retention time |
| --- | --- |
| Cc1ccnc(N2CCCC(C(=O)NCc3ccc(F)cc3Cl)C2)n1 (centres undefined) | 792 s |
| COc1cccc(NC(=O)Cn2c(N3CCCCC3)nc(C)cc2=O)c1 | 658 s |
| CCCN(CCC)C(=O)C1COC2(CCCCC2)N1C(=O)c1c(OC)cccc1OC (centres undefined) | 864 s |
| Cc1ccc(NS(=O)(=O)c2cc3n(c2)CCCNC3=O)cc1 | 651 s |
| Cc1ccc(C)c(-n2ccn(Cc3nc(-c4ccc(C(C)(C)C)cc4)no3)c(=O)c2=O)c1 | 1130 s |
| O=C(NC(Cc1ccccc1)c1nnc(N2CCCC2)o1)c1ccco1 (centres undefined) | 713 s |
| CCOC(=O)c1cccc(N2C=C(C#N)S(=O)(=O)c3c(F)cccc32)c1 | 907 s |
| Cc1oc2ncn(CC(=O)N3CCCc4ccccc43)c(=O)c2c1C | 838 s |
| O=C(c1ccc2ccnc(N3CCN(c4ccccc4)CC3)c2c1)N1CCC(N2CCCCC2)CC1 | 589 s |
| CCOc1ccc(C2Cn3nnc(-c4nc(C5CCCCC5)no4)c3CO2)cc1 (centres undefined) | 1290 s |
| COCc1cc(=O)n(CC(=O)Nc2cccc(C)c2)c(N)n1 | 622 s |
| O=C(O)CNC(=O)C1CCCN(S(=O)(=O)c2ccc(F)cc2)C1 (centres undefined) | 634 s |
| O=S(=O)(c1cccn2c(SCc3cccc(F)c3)nnc12)N1CCc2ccccc2C1 | 959 s |
| CC(=O)N1CCc2cc(N3CC(C(=O)NCc4cccc(Cl)c4)CC3=O)ccc21 (centres undefined) | 702 s |
| N#Cc1cccc(NC(=O)C2CCCN(S(=O)(=O)c3cc(-c4noc(C5CCC5)n4)cs3)C2)c1 (centres undefined) | 1120 s |
| O=C(NCCN1CCOCC1)c1ccc(CS(=O)Cc2cccc(Cl)c2)o1 (centres undefined) | 601 s |
| CCC(=O)Nc1ccc(SCc2cc(C)ccc2C)nn1 | 919 s |
| CCOc1cc(C(=O)NC(C(=O)Nc2nc3ccccc3[nH]2)C(C)C)cc(OCC)c1OCC (centres undefined) | 824 s |
| COc1cccc(-n2c(=O)c3sccc3n(Cc3nc(-c4ccc(F)cc4)no3)c2=O)c1 | 952 s |
| COc1ccccc1-n1nnc(C(=O)N2CCc3ccccc32)c1-c1ccccn1 | 836 s |
